Experimental data reported in patent publication US20190353647A1, “NOVEL REAL-TIME MULTIPLEXED, MULTI-COLOR BIOLUMINESCENCE RESONANCE ENERGY TRANSFER ASSAY, APPARATUS, AND USES THEREOF” (Universite de Bordeaux, priority 2016, published 2019).
Blank lines part the entries; values can stand above or below the molecule they belong to.

How the values were obtained:
Type in all cases: cell-based
TRPV1 [1] = biological target: T1, TRPV1 (Homo sapiens, UniProt Q8NER1); experiment: Three-color spectral BRET, TRPV1-Luc/mAmetrine-CaM component in mixed HEK293T cells; conditions: 20 μM CAPS injected at 75 seconds, real time, mixed cell population
T1 construct: expressed in transfected cells; host or cells: HEK293T
Description: Using the LabView programming language (National Instruments, Austin, Tex., USA), an interface was developed to run the acquisition of the bioluminescent spectra and perform real-time spectral decomposition of the BRET signal into its various components. The experimental emission spectra of Luc, YFP, mAmetrine, aquamarine, and Lss-mOrange were first obtained experimentally using a Cary Eclipse Fluorimeter (Agilent Technology, Santa Clara, Calif., USA) (FIG. 3). Each spectrum was then fitted as a sum of Gaussian curves based on Eq.3.: […]

TRPV1 [2] = biological target: T1, TRPV1; experiment: Calcium assay in transfected HEK293T cells; conditions: cells expressing TRPV1, YFP-TRPV1-Luc or TRPV1-Luc; not in mock-transfected cells
Description: TRP channel activation was evaluated in transfected HEK293T human embryonic-kidney cells. […] For this purpose, we measured calcium entry in mock-transfected or transfected HEK293T cells with either native TRPV1 or the BRET constructs, YFP-TRPV1-Luc or TRPV1-Luc.

TRPV3 = biological target: T2, TRPV3 (Homo sapiens, UniProt Q8NET8); experiment: Three-color spectral BRET, Luc-TRPV3/aquamarine-CaM component in mixed HEK293T cells; set-up: expressed in transfected cells; host or cells: HEK293T (mixed with two other transfected populations); conditions: one mM Drofenine injected at 75 seconds, real time, mixed cell population
T2 sequence (Q8NET8 1-790): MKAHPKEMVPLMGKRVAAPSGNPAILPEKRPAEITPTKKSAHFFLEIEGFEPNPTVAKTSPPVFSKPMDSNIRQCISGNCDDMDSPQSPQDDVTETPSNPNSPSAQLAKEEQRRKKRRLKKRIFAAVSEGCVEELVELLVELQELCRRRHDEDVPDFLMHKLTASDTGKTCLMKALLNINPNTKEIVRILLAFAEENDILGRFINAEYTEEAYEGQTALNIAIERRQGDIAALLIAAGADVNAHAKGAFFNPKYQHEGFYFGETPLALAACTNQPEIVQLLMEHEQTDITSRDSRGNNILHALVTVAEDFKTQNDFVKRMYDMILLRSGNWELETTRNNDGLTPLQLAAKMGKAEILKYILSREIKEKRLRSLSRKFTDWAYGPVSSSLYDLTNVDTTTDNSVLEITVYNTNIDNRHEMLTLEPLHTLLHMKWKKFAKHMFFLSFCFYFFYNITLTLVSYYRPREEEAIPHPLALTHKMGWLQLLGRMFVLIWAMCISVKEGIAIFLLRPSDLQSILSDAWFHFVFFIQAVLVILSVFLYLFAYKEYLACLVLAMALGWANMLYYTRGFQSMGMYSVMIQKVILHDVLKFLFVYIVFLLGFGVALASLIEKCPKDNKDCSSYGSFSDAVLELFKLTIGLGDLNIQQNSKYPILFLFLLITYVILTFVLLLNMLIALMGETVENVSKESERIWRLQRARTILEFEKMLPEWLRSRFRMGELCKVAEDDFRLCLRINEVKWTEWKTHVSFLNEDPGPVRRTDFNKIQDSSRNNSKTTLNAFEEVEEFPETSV
Description: (§1) FIG. 2: Multiplexing measurements of TRPV activity using multicolor BRET. (A) Example of a three-color BRET spectrum and its decomposition, measured in a coculture containing three HEK293T subpopulations transfected with aquamarine-Luc, mAmetrine-Luc, or LSSmOrange-Luc. The grey dots represent the experimental data. Black, light grey, medium grey, and grey solid lines represent the spectral components of Luc, aquamarine, mAmetrine, and LSSmOrange, respectively. […] Results represent the mean of three independent experiments.
(§2) Full BRET spectra were acquired using an optical fiber linked to a Spectra Pro 2300i spectrometer, equipped with a liquid-nitrogen-cooled CCD camera for recording the full visible spectrum (Acton Optics, Acton, Mass., USA). The bioluminescent signal was recorded from transfected cells seeded onto a glass coverslip and placed into a white opaque measurement chamber made of Teflon® and containing an isotonic solution (NaCl 145 mM, KCl 5 mM, KH2PO4 4 mM, CaCl2 1 mM, MgSO4 1 mM, Glucose 10 mM). The temperature of the cell buffer was regulated using an Eppendorf® ThermoStat Plus and measured in real time using a fiber-optic temperature measurement Luxtron 812 system (Lumasense technologies, Santa Clara, Calif., USA). […]

TRPV4 = TRPV4 (Homo sapiens, UniProt Q9HBA0); experiment: Three-color spectral BRET, TRPV4-Luc/LSSmOrange-CaM component in mixed HEK293T cells; set-up: expressed in transfected cells; host or cells: HEK293T (mixed with two other transfected populations); conditions: 100 nM GSK101 injected at 75 seconds, real time, mixed cell population
Description: as §1, §2

T1 sequence (Q8NER1 whole entry): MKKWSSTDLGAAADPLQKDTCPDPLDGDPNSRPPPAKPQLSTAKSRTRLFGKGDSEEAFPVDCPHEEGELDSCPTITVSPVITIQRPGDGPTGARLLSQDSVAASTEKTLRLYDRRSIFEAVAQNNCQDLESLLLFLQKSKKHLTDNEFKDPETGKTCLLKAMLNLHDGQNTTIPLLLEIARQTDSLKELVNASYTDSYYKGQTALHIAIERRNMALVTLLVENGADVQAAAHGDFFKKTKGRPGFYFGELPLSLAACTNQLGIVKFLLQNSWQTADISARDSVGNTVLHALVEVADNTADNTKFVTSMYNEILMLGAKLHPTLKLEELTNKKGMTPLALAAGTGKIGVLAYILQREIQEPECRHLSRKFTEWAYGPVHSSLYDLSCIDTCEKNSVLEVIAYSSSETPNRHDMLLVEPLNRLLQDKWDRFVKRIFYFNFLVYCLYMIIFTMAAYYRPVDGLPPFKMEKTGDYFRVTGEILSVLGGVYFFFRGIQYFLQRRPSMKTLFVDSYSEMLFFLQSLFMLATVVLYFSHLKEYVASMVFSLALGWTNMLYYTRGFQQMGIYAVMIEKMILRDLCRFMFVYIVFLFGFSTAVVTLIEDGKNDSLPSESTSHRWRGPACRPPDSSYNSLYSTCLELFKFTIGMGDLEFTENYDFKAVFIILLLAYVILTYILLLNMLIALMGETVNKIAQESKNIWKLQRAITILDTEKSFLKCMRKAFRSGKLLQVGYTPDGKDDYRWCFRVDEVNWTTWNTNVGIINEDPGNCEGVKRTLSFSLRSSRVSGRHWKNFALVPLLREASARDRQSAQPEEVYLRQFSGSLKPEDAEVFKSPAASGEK
TRPV4, sequence (Q9HBA0 whole entry): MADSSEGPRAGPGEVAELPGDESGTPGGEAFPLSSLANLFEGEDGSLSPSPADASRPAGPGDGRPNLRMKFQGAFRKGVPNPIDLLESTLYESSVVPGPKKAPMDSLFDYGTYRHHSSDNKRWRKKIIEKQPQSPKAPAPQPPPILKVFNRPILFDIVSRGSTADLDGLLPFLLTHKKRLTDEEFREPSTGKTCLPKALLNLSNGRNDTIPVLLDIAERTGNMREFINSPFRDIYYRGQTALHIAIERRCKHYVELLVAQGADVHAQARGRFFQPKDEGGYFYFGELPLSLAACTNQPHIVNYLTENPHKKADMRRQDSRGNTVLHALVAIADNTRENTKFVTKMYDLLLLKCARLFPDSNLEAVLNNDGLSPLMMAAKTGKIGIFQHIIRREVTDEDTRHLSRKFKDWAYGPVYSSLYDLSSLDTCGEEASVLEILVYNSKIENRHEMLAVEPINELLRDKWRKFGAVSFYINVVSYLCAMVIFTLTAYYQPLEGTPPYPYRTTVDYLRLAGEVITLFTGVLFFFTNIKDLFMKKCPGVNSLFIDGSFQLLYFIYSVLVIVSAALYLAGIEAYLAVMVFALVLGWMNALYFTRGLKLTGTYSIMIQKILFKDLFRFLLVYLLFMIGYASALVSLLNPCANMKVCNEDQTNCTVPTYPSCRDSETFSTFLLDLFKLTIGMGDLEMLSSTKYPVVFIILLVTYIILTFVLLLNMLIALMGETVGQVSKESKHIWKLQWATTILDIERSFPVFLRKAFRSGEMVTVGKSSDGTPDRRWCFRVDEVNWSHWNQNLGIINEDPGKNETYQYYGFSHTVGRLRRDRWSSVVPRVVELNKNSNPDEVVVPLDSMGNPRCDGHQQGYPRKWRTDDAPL

TRPV1 BRET signal in three-color assay (TRPV1 [1]): time-dependent increase | Cytosolic calcium concentration (TRPV1 [2]): rapid, maintained increase
Compound: COc1cc(CNC(=O)CCCC/C=C/C(C)C)ccc1O [CAPS, Capsaicin]

Compound: CCN(CC)CCOC(=O)C(c1ccccc1)C1CCCCC1 (stereo not shown) [Drofenine]
TRPV3-related BRET component in three-color assay (TRPV3): increase in only the TRPV3-related BRET component

Compound: CC(C)C[C@H](NC(=O)c1cc2ccccc2s1)C(=O)N1CCN(C(=O)[C@H](CO)NS(=O)(=O)c2ccc(Cl)cc2Cl)CC1 [GSK1016790A]
TRPV4 BRET signal in three-color assay (TRPV4): time-dependent increase
